From patent US20080293699A1, “Inhibitors of thapsigargin-induced cell death” (priority 2007, published 2008)
Like-named read-outs stand apart in the source and are kept apart here.

Tested on: CSM14.1 cells
Experiment: Primary HTS assay: ATP content (ATPlite) of undifferentiated CSM14.1 cells challenged with thapsigargin
Format: cell-based, rat
Settings: thapsigargin-induced death of undifferentiated CSM14.1, ATP content
From the text: For convenience, and because transient reductions in temperature that might be associated with large screening experiments could restore Large T activity, we elected to develop our HTS using undifferentiated CSM14.1 cells, with the plan to then confirm hits using differentiated cells. For monitoring cell death, we used a commercially available bioluminescence reagent that determines intracellular ATP content, without requirement for complicated cell processing steps (ATPlite, Perkin Elmer). Thus, ATP was used as a surrogate indicator of cell survival for the primary assay.
Undifferentiated or differentiated CSM14.1 cells were plated at a density of 3,000 cells/well in 40 μL DMEM medium (containing 10% serum, 1 mM L-glutamine, and antibiotics) in 96 well flat-bottom microtiter plates composed of polystrene (Greiner Bio One, polystyrene, white wall, flat bottom, lumitrac, high binding). After overnight incubation at 32° C., DMSO (0.5% v/v) or 100 uM Salubrinal (Sal) in DMSO was delivered. After 2 hrs, 5 uL of a stock solution of 150 uM TG in DMEM medium containing 0.75% (v:v) DMSO to achieve a final concentration of approximately 15 uM. After culturing for 24 hrs, cellular ATP content was measured by addition of 20 uL per well of ATPlite solution (Perkin-Elmer), and then the plates were incubated for three minutes at room temperature, before reading with a Microplate Luminometer (BD Pharmingen Moonlight model 3096).
To determine the reproducibility of the ATP content assay, we prepared a 96-well plate in which half the wells received TG plus DMSO (assay minimum) and half received TG plus Salubrinal (assay maximum), then performed the ATP content studies using undifferentiated CSM14.1 cells (FIG. 6). CSM14.1 cells were cultured overnight at 3,000 cells per well in 96-well flat-bottom plates, then either DMSO (0.5% final concentration) or Salubrinal (100 μM) in DMSO (0.5% final concentration) was added to half the well (48 each). After two hrs, TG was added to all wells (15 μM final). Cells were cultured for 24 hrs, then the ATP content was measured using the ATPlite luminogenic assay. We then adapted this assay to the high-throughput environment, using a Biomex™ FX liquid handler for automated dispensing of assay components into microwells of 96-well plates. First, undifferentiated CSM14.1 cells were grown at 32° C. in DMEM medium supplemented with 10% fetal bovine serum (FBS), 1% penicillin/streptomycin, and 1% L-glutamine in 150 mm×25 mm polystyrene culture dishes to produce approximately 3×10^6 cells. Second, CSM14.1 cells were recovered from cultures by trypsinization when at 80-90% confluence, and suspended at 7.5×10^4 cells/mL in DMEM medium containing 2% FBS, 1 mM L-glutamine, and antibiotics 100 IU penicillin 100 μg/ml streptomycin. Third, the cell suspension was then delivered at 40 μL per well of 96-well plastic microtiter plates (Greiner Bio One, polystyrene, white wall, flat bottom, lumitrac, high binding, cat #655074), and the plates were cultured overnight at 32° C. in a humidified atmosphere in 95% air: 5% CO2. Fourth, using the automated liquid handler, 5 μL of test compounds in 10% DMSO were added to wells in columns 2-11 of the 96-well plates (leaving columns 1 and 12 intact) to achieve an approximate final concentration of 15 μg/mL test compound and a final concentration of 1% DMSO. Fifth, 5 μL of 1 mM Salubrinal in a solution of 10% DMSO:90% DMEM was added to wells of column 1/rows A-D of each plate, while 5 μL of 10% DMSO:90% DMEM solution was added to wells corresponding to column 1/rows E-H and to all wells in column 12. Sixth, the plates were returned to culture.

[1] = Rattus norvegicus, one value given, read-out: IC50
[2] = one value given, read-out: IC50
[3] = first assay, read-out: IC50 (μM), first value
[4] = second assay (value in bold), read-out: IC50 (μM), value from a second assay

Row | SMILES | IC50 [1] [µM] | IC50 [2] [µM] | IC50 [3] [µM] | IC50 [4] [µM]
1 | COc1ccccc1CN1CCN(C(=O)c2ccc(-c3ccccc3)cc2)CC1 [Compound 5996087, 1-(4-biphenylylcarbonyl)-4-(2-methoxybenzyl)piperazine] | 25 to 50 | – | – | –
2 | O=C1CC(c2ccccc2)CC2=C1C(c1ccccc1Cl)Nc1ccccc1N2 (centres unmarked) [Compound 6065973] | – | > 200 | – | –
3 | COc1ccc(C2CC(=O)C3=C(C2)Nc2ccccc2NC3c2c(F)cccc2F)cc1 (centres unmarked) [Compound 6241186] | – | 25 ± 0.175 | – | –
4 | COc1ccc(C2CC(=O)C3=C(C2)Nc2ccccc2NC3c2ccccc2OC(C)C)cc1 (centres unmarked) [Compound 6043556, 11-(2-isopropoxyphenyl)-3-(4-methoxyphenyl)-2,3,4,5,10,11-hexahydro-1H-dibenzo[b,e][1,4]diazepin-1-one] | 24 ± 2.31 | – | – | –
5 | CCOc1ccc(CN2CCN(C(=O)c3ccc(-c4ccccc4)cc3)CC2)cc1 [Compound 5990076, 1-(4-biphenylylcarbonyl)-4-(4-ethoxybenzyl)piperazine] | > 200 | – | – | –
6 | CCn1c2ccccc2c2cc(CN3CCN(C(=O)c4ccc([N+](=O)[O-])cc4)CC3)ccc21 [Compound 6034674] | – | – | 15 ± 0.495 | 11.5 ± 0.501
7 | COc1ccc(C2CC(=O)C3=C(C2)Nc2ccccc2NC3c2ccccc2C)cc1OC (centres unmarked) [Compound 6369841, 3-(3,4-dimethoxyphenyl)-11-(2-methylphenyl)-2,3,4,5,10,11-hexahydro-1H-dibenzo[b,e][1,4]diazepin-1-one] | 36.5 ± 2.19 | – | – | –
8 | CCN(CC)c1ccc(C2=Nc3ccccc3NC3=C2C(=O)CC(c2ccc(Cl)cc2)C3)cc1 (racemic) [MLS-0292126] | – | 16.5 | – | –
9 | COc1ccc(Br)cc1CN1CCN(C(=O)c2ccc(-c3ccccc3)cc2)CC1 [Compound 5990041] | – | – | 12.8 ± 0.318 | 14.2 ± 1.2
10 | COc1ccc(C2CC(=O)C3=C(C2)Nc2ccccc2NC3c2ccc(F)c(F)c2)cc1 (centres unmarked) [Compound 6079090, 11-(3,4-difluorophenyl)-3-(4-methoxyphenyl)-2,3,4,5,10,11-hexahydro-1H-dibenzo[b,e][1,4]diazepin-1-one] | 21.7 ± 0.247 | – | – | –
11 | Cc1ccc(C2Nc3ccccc3NC3=C2C(=O)CC(c2ccc(Cl)cc2)C3)cc1 (centres unmarked) [Compound 6047795] | – | 11 ± 1.04 | – | –
12 | COc1ccc(C2CC(=O)C3=C(C2)Nc2ccccc2NC3c2cccc(Cl)c2)cc1 (centres unmarked) [Compound 5969327, 11-(3-chlorophenyl)-3-(4-methoxyphenyl)-2,3,4,5,10,11-hexahydro-1H-dibenzo[b,e][1,4]diazepin-1-one] | 21.7 ± 1.07 | – | – | –
13 | COc1ccc(C2CC(=O)C3=C(C2)Nc2ccccc2NC3c2ccc(-c3ccccc3)cc2)cc1OC (centres unmarked) [Compound 6239945, 11-(4-biphenylyl)-3-(3,4-dimethoxyphenyl)-2,3,4,5,10,11-hexahydro-1H-dibenzo[b,e][1,4]diazepin-1-one] | 21.8 ± 2.97 | – | – | –
14 | O=C(C(c1ccccc1)c1ccccc1)N1CCN(Cc2ccccc2[N+](=O)[O-])CC1 [Compound 5948365] | – | 19.5 | – | –
15 | COc1ccc(C2CC(=O)C3=C(C2)Nc2ccccc2NC3c2ccc(C)cc2)cc1OC (centres unmarked) [Compound 6105705, 3-(3,4-dimethoxyphenyl)-11-(4-methylphenyl)-2,3,4,5,10,11-hexahydro-1H-dibenzo[b,e][1,4]diazepin-1-one] | 25 ± 0.169 | – | – | –
16 | COc1ccc(OC)c(CN2CCN(C(=O)c3ccc(-c4ccccc4)cc3)CC2)c1 [Compound 5990137] | – | – | 17.5 ± 0.675 | 13.9 ± 1.06
17 | COc1ccc(C2CC(=O)C3=C(C2)Nc2ccccc2NC3c2ccc(O)cc2)cc1 (centres unmarked) [Compound 6045744, 11-(4-hydroxyphenyl)-3-(4-methoxyphenyl)-2,3,4,5,10,11-hexahydro-1H-dibenzo[b,e][1,4]diazepin-1-one] | > 200 | – | – | –
18 | COc1ccc(C2CC(=O)C3=C(C2)Nc2ccccc2NC3c2cccc(O)c2)cc1OC (centres unmarked) [Compound 3192-5300] | – | 53.5 ± 3.45 | – | –
19 | CCn1c2ccccc2c2cc(CN3CCN(C(=O)c4ccc(OC)c(OC)c4)CC3)ccc21 [Compound 6033352] | – | – | 13.4 ± 0.248 | 13.8 ± 0.548
20 | CCCCOc1ccccc1C1Nc2ccccc2NC2=C1C(=O)CC(c1ccccc1)C2 (centres unmarked) [Compound 6066511] | – | 19.2 ± 2.16 | – | –
21 | CC(C)Oc1ccccc1C1Nc2ccccc2NC2=C1C(=O)CC(c1ccc(Cl)cc1)C2 (centres unmarked) [Compound 6047998] | – | 8.09 ± 0.832 | – | –

Row | SMILES | IC50 [1] [µM] | IC50 [2] [µM] | IC50 [3] [µM] | IC50 [4] [µM]
22 | COc1ccccc1CN1CCN(C(=O)c2cc(OC)c(OC)c(OC)c2)CC1 [Compound 5397316] | – | > 200 | – | –
23 | CCOc1cccc(C2Nc3ccccc3NC3=C2C(=O)CC(c2ccc(OC)cc2)C3)c1 (centres unmarked) [Compound 6044673] | – | 21.2 ± 0.362 | 20.2 ± 0.781 | 21.2 ± 0.362
24 | CCOc1ccc(C2CC(=O)C3=C(C2)Nc2ccccc2NC3c2cc(F)ccc2Cl)cc1OC (centres unmarked) [Compound 5991-0620] | – | > 200 | – | –
25 | CCn1c2ccccc2c2cc(CN3CCN(C(=O)c4cc(OC)c(OC)c(OC)c4)CC3)ccc21 [Compound 5397372] | – | – | 18.9 ± 0.568 | 13.5 ± 2.02
26 | COc1cccc(CN2CCN(C(=O)c3ccc(-c4ccccc4)cc3)CC2)c1OC [Compound 6035098] | – | – | 19.8 ± 0.721 | 16.6 ± 2.03
27 | COc1ccc(C2CC(=O)C3=C(C2)Nc2ccccc2NC3c2ccccc2Cl)cc1OC (centres unmarked) [Compound 6076307, 11-(2-chlorophenyl)-3-(3,4-dimethoxyphenyl)-2,3,4,5,10,11-hexahydro-1H-dibenzo[b,e][1,4]diazepin-1-one] | 41.7 ± 0.916 | – | – | –
28 | CCOc1cc(C2Nc3ccccc3NC3=C2C(=O)CC(c2ccc(OC)cc2)C3)cc(Br)c1O (centres unmarked) [Compound 6048306] | – | 18.2 ± 1.93 | – | –
29 | COc1ccc(C2CC(=O)C3=C(C2)Nc2ccccc2NC3c2c(F)cccc2Cl)cc1 (centres unmarked) [Compound 6044487] | – | 15.3 ± 1.51 | – | –
30 | O=C1CC(c2ccccc2)CC2=C1C(c1c(F)cccc1Cl)Nc1ccccc1N2 (centres unmarked) [Compound 6237973] | – | 19.49 ± 0.169 | 22.6 ± 0.68 | 19.49 ± 0.169
31 | COc1ccc(C2CC(=O)C3=C(C2)Nc2ccccc2NC3c2c(Cl)cccc2Cl)cc1 (centres unmarked) [Compound 6079349] | – | 31.5 ± 2.84 | – | –
32 | CSc1ccc(C2Nc3ccccc3NC3=C2C(=O)CC(c2ccccc2)C3)cc1 (centres unmarked) [Compound 5963958] | – | 12.5 ± 0.179 | 18.6 ± 9.14 | 12.5 ± 0.179
33 | O=C1CC(c2ccccc2)CC2=C1C(c1cccc3ccccc13)Nc1ccccc1N2 (centres unmarked) [Compound 6366991] | – | 22.2 ± 2.8 | – | –
34 | COc1ccc(C2CC(=O)C3=C(C2)Nc2ccccc2NC3c2cccc(C(F)(F)F)c2)cc1OC (centres unmarked) [Compound 6238475] | – | 12.5 ± 0.17 | 18.81 ± 0.157 | 12.5 ± 0.17
35 | COc1ccc(C2CC(=O)C3=C(C2)Nc2ccccc2NC3c2ccccc2[N+](=O)[O-])cc1OC (centres unmarked) [Compound 6240043] | – | 39.6 ± 1.99 | – | –
36 | COc1ccc(C2Nc3ccccc3NC3=C2C(=O)CC(c2ccc(Cl)cc2)C3)cc1 (centres unmarked) [Compound 6049070, 3-(4-chlorophenyl)-11-(4-methoxyphenyl)-2,3,4,5,10,11-hexahydro-1H-dibenzo[b,e][1,4]diazepin-1-one] | 12.5 ± 0.13 | – | – | –
37 | COc1ccc(C2CC(=O)C3=C(C2)Nc2ccccc2NC3c2cccc(Br)c2)cc1OC (centres unmarked) [Compound 6239538] | – | 12.5 ± 0.177 | 15.5 ± 0.243 | 12.5 ± 0.177
38 | CCn1c2ccccc2c2cc(CN3CCN(C(=O)c4cccs4)CC3)ccc21 [Compound 5951613] | – | – | 16.74 ± 0.158 | 12.7 ± 1.11
39 | COc1ccc(CN2CCN(C(=O)c3ccc(-c4ccccc4)cc3)CC2)c(OC)c1 [Compound 5955734] | – | – | 23.8 | 16.5 ± 1.47
40 | COc1ccc(C2CC(=O)C3=C(C2)Nc2ccccc2NC3c2ccc(C(C)C)cc2)cc1 (centres unmarked) [Compound 6049861] | – | 10.3 ± 1.28 | – | –
41 | COc1ccc(C2CC(=O)C3=C(C2)Nc2ccccc2NC3c2ccc(NC(C)=O)cc2)cc1 (centres unmarked) [Compound 6067345] | – | > 100 | – | –
